# Assay results reported in patent US20240076347A1, “METHODS FOR PREVENTING FUNGAL INFECTIONS” (Cidara Therapeutics, Inc., priority 2016, published 2024).
# Numbered stars: 1 amine (or outer) side, 2 acyl side, 3 side chain; on linkers, the order of the positions; unused ones are H or OH. Bridge positions count the residues as written; N and C are the ends. Square brackets hold non-standard residues; d marks the D form. Peptide text beside a SMILES is read from it. * marks the point of attachment. ξ: configuration not given here. Orn(4R-OH,5R-OCH2CH2NMe3+) = C[N+](C)(C)CCO[C@@H](N[*:3])[C@H](O)C[C@H](N[*:1])C(=O)[*:2]; hTyr(3S-OH,4S-OH,3'-OSO3H) = N[C@H](C(=O)O)[C@H](O)[C@@H](O)c1ccc(O)c(OS(=O)(=O)O)c1; pTerphenylCO(4''-OnC5H11) = CCCCCOc1ccc(-c2ccc(-c3ccc(C(=O)*)cc3)cc2)cc1; Orn(4R-OH,5R-OH) = O=C([C@H](C[C@@H](O)[C@@H](O)N[*:3])N[*:1])[*:2]; hTyr(3S-OH,4S-OH) = N[C@H](C(=O)O)[C@H](O)[C@@H](O)c1ccc(O)cc1; Pro(3S-OH,4S-Me) = C[C@H]1CN[C@H](C(=O)O)[C@H]1O; X2 = CCCCCOc1ccc(-c2cc(-c3ccc(C(=O)*)cc3)no2)cc1; Gln(3R-OH) = NC(=O)C[C@@H](O)[C@H](N)C(=O)O; X1 = C[C@H]1CN([*:1])C(C(=O)[*:2])C1O; Hyp = O=C(O)[C@@H]1C[C@@H](O)CN1; ξT = CC(O)C(N)C(=O)O
# System: Aspergillus fumigatus (strain AF293)
# Assay: Murine model of pulmonary aspergillosis (Example 9), survival and lung burden
# Format: in vivo
# Conditions: for Group Geometric mean / Log10 Group Geometric mean / Log10 reduction from vehicle control: terminal lung burden
# Method: Animal Strain and Housing. Mice used in these studies were supplied by Charles River (Margate UK) and were specific pathogen free. The strain of mice used was ICR (also known as CD1 Mice) which is a well characterized outbred murine strain. Male mice were 11-15 g on receipt at our facility and allowed to acclimatize for at least seven days.
# Immunosuppression. Mice were immunosuppressed on Day −4 with 150 mg/kg cyclophosphamide IP, and on Day −1 with 150 mg/kg cyclophosphamide IP and 175 mg/kg cortisone acetate SC. To prevent bacterial infection due to the immunosuppression mice were given 50 mg/kg/day ceftazidime.
# Preparation of Organism and Infection. A. fumigatus strain AF293 inoculum was prepared from spore cultures grown on Sabouraud Dextrose agar (SAB) containing 50 μg/mL chloramphenicol (SABC) in vented tissue culture flasks. Following incubation for 7-10 days at 30° C., spore cultures were washed in sterile phosphate buffered saline (PBS) containing 0.05% Tween 80. Spore count was determined using a haemocytometer and spores were diluted in PBS to ˜6.9×10^6 CFU/mL. Inoculum concentration was confirmed by quantitative culture onto SABC agar. Neutropenic mice lungs were infected with 0.04 mL (0.02 mL/nares) of ˜6.9×10^6 CFU/mL (˜2.8×10^5 cfu/mouse) of A. fumigatus strain AF293 by intranasal (IN) instillation under temporary 2.5% isoflurane induced anesthesia.
# Preparation of Test Articles. Micafungin was provided as a 50 mg vial (Lot 02323002, expiry 08/2017) and was prepared as per manufacturer instructions by adding 5 mL saline for injection (SFI) directly into the vial to make a 10 mg/mL stock solution. This solution was then diluted further in SFI to a working concentration of 0.2 mg/mL. The compound was administered IP at 10 mL/kg to achieve a 2 mg/kg dose. It was prepared fresh once and stored at 4° C. between doses.
# Test article CD101 stock was prepared at 2 mg/mL in 10% DMSO/1% Tween 20 diluent. A clear non particulate solution was obtained following gentle mixing. The stock was kept at 4° C. until required. Study doses of 5 mg/kg (0.5 mg/mL) and 10 mg/kg (1 mg/mL) were prepared from the 2 mg/mL stock as required by diluting in 10% DMSO/1% Tween 20 diluent. The 2 mg/mL stock was used undiluted for the 20 mg/kg study dose. All doses were administered IP at 10 mL/kg.
# Treatment. For this study, treatments were initiated on day five pre-infection according to treatment groups outlined in Table 15. A total of 78 mice (six mice per treatment group) were used in the study.
# Endpoints. The primary endpoint for this study was survival within agreed ethical limits (>20% weight loss, severe hypothermia <34° C., inability to reach food or drink, severe hunching). Mice were monitored by daily weight measurements with observations as frequently as clinical condition required. Mice presenting with severe clinical deterioration were humanely euthanized using an overdose of pentobarbitone administered by IP injection following clinical assessment and the time of death was recorded. Animal carcasses were stored at −20° C. for assessment of burden. Ten days post infection all surviving animals were weighed and had their clinical condition assessed prior to being euthanized. Final survival numbers were recorded and analyzed as described below and carcasses frozen at −20° C. prior to further processing.
# A secondary endpoint for the study was terminal lung tissue burden. Immediately following confirmation of death, carcasses were frozen at −20° C. prior to tissue dissection and processing. The frozen carcasses were thawed at room temperature and the lungs removed and placed into pre-weighed bead-beating tubes containing 2 mL of PBS and subjected to mechanical disruption. Organ homogenates were diluted further in PBS and quantitatively cultured for A. fumigatus onto SABC and incubated at 30° C. for 24-48 hours. […]
# [1] = 5 mg/kg IP Day 0 (1 h post infection)
# [2] = 2 mg/kg IP Day 0 (1 h post infection)
structure (smiles),measurement,setting,value
"CCCCCOc1ccc(-c2ccc(-c3ccc(C(=O)N[C@H]4C[C@@H](O)[C@@H](OCC[N+](C)(C)C)NC(=O)C5C(O)[C@@H](C)CN5C(=O)[C@H]([C@@H](C)O)NC(=O)[C@H]([C@H](O)[C@@H](O)c5ccc(O)cc5)NC(=O)[C@@H]5C[C@@H](O)CN5C(=O)C(C(C)O)NC4=O)cc3)cc2)cc1 (stereo partly drawn) [CD101] ({pTerphenylCO(4''-OnC5H11)}-[Orn(4R-OH,5R-OCH2CH2NMe3+)][ξT][Hyp][hTyr(3S-OH,4S-OH)]T[X1]; lactam 1-C)",Mean Survival,[1],67.8 h
same,Median Survival,[1],64.6 h
same,Mean Survival,5 mg/kg IP Day −1,72.1 h
same,Median Survival,5 mg/kg IP Day −1,67.6 h
same,Mean Survival,5 mg/kg IP Day −3,70.0 h
same,Median Survival,5 mg/kg IP Day −3,67.7 h
same,Mean Survival,5 mg/kg IP Day −5,65.3 h
same,Median Survival,5 mg/kg IP Day −5,65.3 h
same,Mean Survival,10 mg/kg IP Day −1,121.8 h
same,Median Survival,10 mg/kg IP Day −1,81.0 h
same,Mean Survival,10 mg/kg IP Day −3,76.9 h
same,Median Survival,10 mg/kg IP Day −3,73.4 h
same,Mean Survival,10 mg/kg IP Day −5,67.2 h
same,Median Survival,10 mg/kg IP Day −5,65.7 h
same,survival compared to micafungin one day before infection,10 mg/kg and 20 mg/kg IP one day before infection,statistically greater survival
same,Mean Survival,20 mg/kg IP Day −1,155.6 h
same,Median Survival,20 mg/kg IP Day −1,72.3 h
same,Mean Survival,20 mg/kg IP Day −3,91.9 h
same,Median Survival,20 mg/kg IP Day −3,69.8 h
same,Mean Survival,20 mg/kg IP Day −5,75.5 h
same,Median Survival,20 mg/kg IP Day −5,69.8 h
same,Group Geometric mean,5 mg/kg IP Day 0,5.65 × 10^4 CFU/g
same,Log10 Group Geometric mean,5 mg/kg IP Day 0,4.75 CFU/g
same,Log10 reduction from vehicle control,5 mg/kg IP Day 0,−0.98 CFU/g
same,Group Geometric mean,5 mg/kg IP Day −1,3.75 × 10^4 CFU/g
same,Log10 Group Geometric mean,5 mg/kg IP Day −1,4.57 CFU/g
same,Log10 reduction from vehicle control,5 mg/kg IP Day −1,−0.80 CFU/g
same,Group Geometric mean,5 mg/kg IP Day −3,5.71 × 10^4 CFU/g
same,Log10 Group Geometric mean,5 mg/kg IP Day −3,4.76 CFU/g
same,Log10 reduction from vehicle control,5 mg/kg IP Day −3,−0.98 CFU/g
same,Group Geometric mean,5 mg/kg IP Day −5,6.36 × 10^4 CFU/g
same,Log10 Group Geometric mean,5 mg/kg IP Day −5,4.80 CFU/g
same,Log10 reduction from vehicle control,5 mg/kg IP Day −5,−1.03 CFU/g
same,Group Geometric mean,10 mg/kg IP Day −1,5.17 × 10^3 CFU/g
same,Log10 Group Geometric mean,10 mg/kg IP Day −1,3.71 CFU/g
same,Log10 reduction from vehicle control,10 mg/kg IP Day −1,0.06 CFU/g
same,Group Geometric mean,10 mg/kg IP Day −3,7.34 × 10^3 CFU/g
same,Log10 Group Geometric mean,10 mg/kg IP Day −3,3.87 CFU/g
same,Log10 reduction from vehicle control,10 mg/kg IP Day −3,−0.09 CFU/g
same,Group Geometric mean,10 mg/kg IP Day −5,3.40 × 10^4 CFU/g
same,Log10 Group Geometric mean,10 mg/kg IP Day −5,4.53 CFU/g
same,Log10 reduction from vehicle control,10 mg/kg IP Day −5,−0.76 CFU/g
same,Group Geometric mean,20 mg/kg IP Day −1,1.12 × 10^4 CFU/g
same,Log10 Group Geometric mean,20 mg/kg IP Day −1,4.05 CFU/g
same,Log10 reduction from vehicle control,20 mg/kg IP Day −1,−0.28 CFU/g
same,Group Geometric mean,20 mg/kg IP Day −3,4.92 × 10^4 CFU/g
same,Log10 Group Geometric mean,20 mg/kg IP Day −3,4.69 CFU/g
same,Log10 reduction from vehicle control,20 mg/kg IP Day −3,−0.92 CFU/g
same,Group Geometric mean,20 mg/kg IP Day −5,8.35 × 10^3 CFU/g
same,Log10 Group Geometric mean,20 mg/kg IP Day −5,3.92 CFU/g
same,Log10 reduction from vehicle control,20 mg/kg IP Day −5,−0.15 CFU/g
"CCCCCOc1ccc(-c2cc(-c3ccc(C(=O)N[C@H]4C[C@@H](O)[C@@H](O)NC(=O)[C@@H]5[C@@H](O)[C@@H](C)CN5C(=O)[C@H]([C@H](O)CC(N)=O)NC(=O)[C@H]([C@H](O)[C@@H](O)c5ccc(O)c(OS(=O)(=O)O)c5)NC(=O)[C@@H]5C[C@@H](O)CN5C(=O)[C@H]([C@@H](C)O)NC4=O)cc3)no2)cc1 [Micafungin, micafungin, reference compound] (X2-[Orn(4R-OH,5R-OH)]T[Hyp][hTyr(3S-OH,4S-OH,3'-OSO3H)][Gln(3R-OH)][Pro(3S-OH,4S-Me)]; lactam 1-C)",Mean Survival,[2],75.3 h
same,Median Survival,[2],73.3 h
same,Mean Survival,2 mg/kg IP Day −1,64.7 h
same,Median Survival,2 mg/kg IP Day −1,64.7 h
same,Group Geometric mean,2 mg/kg IP Day 0,1.08 × 10^4 CFU/g
same,Log10 Group Geometric mean,2 mg/kg IP Day 0,4.03 CFU/g
same,Log10 reduction from vehicle control,2 mg/kg IP Day 0,−0.26 CFU/g
same,Group Geometric mean,2 mg/kg IP Day −1,4.34 × 10^4 CFU/g
same,Log10 Group Geometric mean,2 mg/kg IP Day −1,4.64 CFU/g
same,Log10 reduction from vehicle control,2 mg/kg IP Day −1,−0.86 CFU/g
